{
  "source": "patent US4736051A",
  "about": "“Process for the preparation of an alkali metal salt of a diester phosphoric acid” (Kao Corporation, priority 1985, dated 1988)",
  "format_in_all_cases": "physicochemical",
  "key": {"Craft point": {"experiment": "Craft point"}, "[1]": {"experiment": "Lather amount (lather volume) of 5% aqueous solution of surface active agent", "conditions": "100 g, 1000 rpm, 30 seconds agitation, 10 seconds standing, 40° C.", "procedure": "The lather amount was measured according to the following manner. An aqueous solution containing 5% of surface active agent is prepared and 100 g of the aqueous solution is poured into a measuring cylinder, followed by agitation for 30 seconds by agitator. After agitation, the aqueous solution is placed as it is for 10 seconds, followed by subjecting to measurement of the lather volume. The revolution of the agitator is 1000 rpm and the agitator paddles are reversely rotated every 5 seconds. Temperature was maintained 40° C. during the measurement."}, "[2]": {"experiment": "Phase diagram in aqueous system (FIG. 1)"}, "[3]": {"experiment": "Hygroscopicity of isolated powder", "conditions": "white powder"}},
  "data": [
    {"compound": "CCCCCCCCCCCCOP(=O)([O-])[O-].[Na+].[Na+]", "note": "[Sodium 1 dodecyl phosphate]", "values": [
      {"measurement": "craft point (°C.)", "setting": "Craft point", "result": 32, "unit": "°C"},
      {"measurement": "lather amount (lather Vol. ml)", "setting": "[1]", "result": 260, "unit": "mL"}
    ]},
    {"compound": "Sodium 2 dodecyl phosphate", "values": [
      {"measurement": "craft point (°C.)", "setting": "Craft point", "result": 20, "unit": "°C"},
      {"measurement": "lather amount (lather Vol. ml)", "setting": "[1]", "result": 230, "unit": "mL"}
    ]},
    {"compound": "C=C(C)C(=O)OCC(O)COP(=O)([O-])OCCCCCCCCCCCC.[Na+]", "note": "(stereo not drawn) [Compound (XIV), sodium dodecyl 2-hydroxy-3-methacryloyloxypropyl phosphate]", "values": [
      {"measurement": "phase diagram in aqueous systems", "setting": "[2]", "result": "liquid crystals"}
    ]},
    {"compound": "CCCCCCCCCCCCOP(=O)([O-])OCC(O)C[N+](C)(C)C", "note": "(stereo not drawn) [Example 14]", "values": [
      {"measurement": "hygroscopicity", "setting": "[3]", "result": "very hygroscopic"}
    ]}
  ]
}
